In brackets after ≈: the same amount, converted by molar mass.
How the values were obtained:
[1] = molecular target: Human FXIa (Homo sapiens (Human), UniProt P03951); experiment: Determination of the % inhibition for FXIa (fluorogenic substrate Z-Gly-Pro-Arg-AFC; 40 μM or IC50); assay type: biochemical
Procedure, shortened: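 Human FXIa incubated at 25 °C with fluorogenic substrate Z-Gly-Pro-Arg-AFC and test compound at 40 μM for % inhibition, or a concentration series for IC50. Residual activity taken as initial rate from absorbance change at 410 nm.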

[2] = molecular target: Human KLK1 (Homo sapiens (Human), UniProt P06870); experiment: Determination of the IC50 for KLK1 (fluorogenic substrate H-DVal-Leu-Arg-AFC); assay type: biochemical
Procedure, shortened: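 Human KLK1 incubated at 25° C. with fluorogenic substrate H-DVal-Leu-Arg-AFC and a range of test compound concentrations. Residual activity taken as initial reaction rate from absorbance change at 410 nm; IC50 derived from these rates.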

[3] = Solubility after 24 hrs in Fasted State Simulated Intestinal Fluid (FaSSIF); assay type: physicochemical; details: Fasted State Simulated Intestinal Fluid (FaSSIF), thermodynamic from solid, 24 hrs at 37° C., nominal concentration 1 mg/mL (as free base)
Procedure: Selected compounds were further screened for solubility in Fasted State Simulated Intestinal Fluid (FaSSIF).
Approximately 1 mg of test compound is accurately weighed into a 2 mL vial. Volumes of the FaSSIF solution (pre-heated to 37° C.) were added to a vial to give a nominal concentration of 1 mg/mL (as free base). The FaSSIF solution was prepared on the day of use. The samples were vortexed before being placed in a Titramax 1000 shaker for 24 hrs at 37° C. and approximately 500 rpm. The samples were transferred to eppendorf tubes and centrifuged at 15,000 g (r.c.f.) for 10 min at 37° C. and analysed for concentration of test compound by LCMS.

[4] = molecular target: Human plasma kallikrein (Homo sapiens (Human), UniProt P03952); experiment: Determination of the IC50 for plasma kallikrein (fluorogenic substrate H-DPro-Phe-Arg-AFC); assay type: biochemical; details: class symbols A-D, read-out: IC50 (human PKal)
Procedure, shortened: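 Enzyme from a commercial source was incubated at 25° C. with H-DPro-Phe-Arg-AFC substrate and a range of test compound concentrations. Residual activity was taken as the initial reaction rate, followed by absorbance change at 410 nm, and IC50 values were derived from it.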

Sequence of Human KLK1 (P06870 25-262): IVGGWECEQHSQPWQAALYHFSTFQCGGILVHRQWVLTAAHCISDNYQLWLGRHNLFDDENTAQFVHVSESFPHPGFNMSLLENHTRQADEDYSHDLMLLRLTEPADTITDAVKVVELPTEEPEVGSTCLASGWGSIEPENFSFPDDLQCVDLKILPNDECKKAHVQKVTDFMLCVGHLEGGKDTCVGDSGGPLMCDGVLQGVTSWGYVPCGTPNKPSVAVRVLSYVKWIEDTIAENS
Sequence of Human FXIa (P03951 388-625): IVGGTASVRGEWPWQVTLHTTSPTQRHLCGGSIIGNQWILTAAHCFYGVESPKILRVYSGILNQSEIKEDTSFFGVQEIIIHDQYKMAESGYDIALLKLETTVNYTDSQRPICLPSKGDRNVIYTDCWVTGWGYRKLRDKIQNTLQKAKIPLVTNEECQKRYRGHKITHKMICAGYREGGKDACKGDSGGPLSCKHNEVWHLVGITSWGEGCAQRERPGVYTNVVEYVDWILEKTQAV
Sequence of Human FXIa (P03951 19-387 partner): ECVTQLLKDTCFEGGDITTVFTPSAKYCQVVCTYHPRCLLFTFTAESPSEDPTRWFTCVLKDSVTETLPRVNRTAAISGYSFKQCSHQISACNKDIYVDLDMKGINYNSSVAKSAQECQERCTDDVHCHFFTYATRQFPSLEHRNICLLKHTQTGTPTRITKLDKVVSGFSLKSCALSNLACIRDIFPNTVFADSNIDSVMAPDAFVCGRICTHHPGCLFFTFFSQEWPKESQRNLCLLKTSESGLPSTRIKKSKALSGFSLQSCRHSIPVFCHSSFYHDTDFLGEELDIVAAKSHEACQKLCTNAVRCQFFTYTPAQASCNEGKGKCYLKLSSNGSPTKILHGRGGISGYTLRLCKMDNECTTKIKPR
Sequence of Human plasma kallikrein (P03952 391-638): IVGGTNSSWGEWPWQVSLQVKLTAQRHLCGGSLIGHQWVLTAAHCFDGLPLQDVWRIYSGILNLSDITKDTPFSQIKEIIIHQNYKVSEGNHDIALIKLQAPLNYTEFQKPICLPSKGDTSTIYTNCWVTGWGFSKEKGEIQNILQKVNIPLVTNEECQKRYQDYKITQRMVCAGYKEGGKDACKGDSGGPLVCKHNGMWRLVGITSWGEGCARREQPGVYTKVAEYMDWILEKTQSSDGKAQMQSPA
Sequence of Human plasma kallikrein (P03952 20-390 partner): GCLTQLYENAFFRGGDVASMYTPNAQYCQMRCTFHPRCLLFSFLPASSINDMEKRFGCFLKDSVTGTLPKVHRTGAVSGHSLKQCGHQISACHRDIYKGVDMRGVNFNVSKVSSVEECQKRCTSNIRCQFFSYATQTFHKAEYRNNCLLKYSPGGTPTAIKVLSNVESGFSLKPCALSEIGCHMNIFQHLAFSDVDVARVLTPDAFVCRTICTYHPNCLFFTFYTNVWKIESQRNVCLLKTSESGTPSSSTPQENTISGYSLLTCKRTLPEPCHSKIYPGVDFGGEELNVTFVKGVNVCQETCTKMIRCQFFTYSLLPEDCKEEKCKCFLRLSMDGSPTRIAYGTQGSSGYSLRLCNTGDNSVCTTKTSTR

Compound	IC50 [1]	IC50 [2]	solubility at 24 h [3]	IC50 [4]
COCc1nn(Cc2ccc3c(c2)CN(C(C)C)CC3)cc1C(=O)NCc1c(-n2cc(C#N)cn2)ccc(OC)c1F [Example 30, N-{[6-(4-cyanopyrazol-1-yl)-2-fluoro-3-methoxyphenyl]methyl}-1-[(2-isopropyl-3,4-dihydro-1H-isoquinolin-7-yl)methyl]-3-(methoxymethyl)pyrazole-4-carboxamide]	39.6 µM	> 40 µM	920 µg/mL (≈ 1610 µM)	< 0.01 µM
COCc1nn(Cc2ccc3c(c2)CCN(C)C3)cc1C(=O)NCc1c(-n2cc(C(F)F)nn2)ccc(OC)c1F [Example 34, N-({6-[4-(difluoromethyl)-1,2,3-triazol-1-yl]-2-fluoro-3-methoxyphenyl}methyl)-3-(methoxymethyl)-1-[(2-methyl-3,4-dihydro-1H-isoquinolin-6-yl)methyl]pyrazole-4-carboxamide]	> 40 µM	> 40 µM	> 1000 µg/mL	< 0.01 µM
COCc1nn(Cc2ccc3c(c2)CCN(C2CC2)C3)cc1C(=O)NCc1c(-n2cc(C)nn2)ccc(OC)c1F [Example 35, 1-[(2-cyclopropyl-3,4-dihydro-1H-isoquinolin-6-yl)methyl]-N-{[2-fluoro-3-methoxy-6-(4-methyl-1,2,3-triazol-1-yl)phenyl]methyl}-3-(methoxymethyl)pyrazole-4-carboxamide]	> 40 µM	> 40 µM	510 µg/mL (≈ 911 µM)	0.03 to 0.1 µM
COCc1nn(Cc2ccc3c(c2)CCN(C)C3)cc1C(=O)NCc1c(-n2cc(C)nn2)ccc(OC)c1F [Example 36, N-{[2-fluoro-3-methoxy-6-(4-methyl-1,2,3-triazol-1-yl)phenyl]methyl}-3-(methoxymethyl)-1-[(2-methyl-3,4-dihydro-1H-isoquinolin-6-yl)methyl]pyrazole-4-carboxamide]	> 4 µM	> 4 µM	880 µg/mL (≈ 1650 µM)	< 0.01 µM
COCc1nn(Cc2ccc3c(c2)CCN(C2CCC2)C3)cc1C(=O)NCc1c(-n2cc(C)nn2)ccc(OC)c1F [Example 40, 1-[(2-cyclobutyl-3,4-dihydro-1H-isoquinolin-6-yl)methyl]-N-{[2-fluoro-3-methoxy-6-(4-methyl-1,2,3-triazol-1-yl)phenyl]methyl}-3-(methoxymethyl)pyrazole-4-carboxamide]	> 40 µM	> 40 µM	> 1000 µg/mL	0.01 to 0.03 µM
COCc1nn(Cc2ccc3c(c2)CCN(C)C3)cc1C(=O)NCc1c(-n2cnc(C(F)F)n2)ccc(OC)c1F [Example 41, N-({6-[3-(difluoromethyl)-1,2,4-triazol-1-yl]-2-fluoro-3-methoxyphenyl}methyl)-3-(methoxymethyl)-1-[(2-methyl-3,4-dihydro-1H-isoquinolin-6-yl)methyl]pyrazole-4-carboxamide]	> 40 µM	> 40 µM	> 1000 µg/mL	< 0.01 µM
COCc1nn(Cc2ccc3c(c2)CCN(C)C3)cc1C(=O)NCc1c(-n2cnc(C(F)(F)F)n2)ccc(OC)c1F [Example 42, N-({2-fluoro-3-methoxy-6-[3-(trifluoromethyl)-1,2,4-triazol-1-yl]phenyl}methyl)-3-(methoxymethyl)-1-[(2-methyl-3,4-dihydro-1H-isoquinolin-6-yl)methyl]pyrazole-4-carboxamide]	> 40 µM	> 40 µM	870 µg/mL (≈ 1480 µM)	< 0.01 µM
COCc1nn(Cc2ccc3c(c2)CCN(C)C3)cc1C(=O)NCc1c(-n2ccc(C#N)n2)ccc(OC)c1F [Example 43, N-{[6-(3-cyanopyrazol-1-yl)-2-fluoro-3-methoxyphenyl]methyl}-3-(methoxymethyl)-1-[(2-methyl-3,4-dihydro-1H-isoquinolin-6-yl)methyl]pyrazole-4-carboxamide]	31.8 µM	> 40 µM	800 µg/mL (≈ 1470 µM)	< 0.01 µM
COCc1nn(Cc2ccc3c(c2)CCN(C(C)C)C3)cc1C(=O)NCc1c(-n2cnc(C(F)F)n2)ccc(OC)c1F [Example 44, N-({6-[3-(difluoromethyl)-1,2,4-triazol-1-yl]-2-fluoro-3-methoxyphenyl}methyl)-1-[(2-isopropyl-3,4-dihydro-1H-isoquinolin-6-yl)methyl]-3-(methoxymethyl)pyrazole-4-carboxamide]	> 40 µM	> 40 µM	> 1000 µg/mL	< 0.01 µM
COCc1nn(Cc2ccc3c(c2)CCN(C(C)C)C3)cc1C(=O)NCc1c(-n2cnc(C(F)(F)F)n2)ccc(OC)c1F [Example 45, N-({2-fluoro-3-methoxy-6-[3-(trifluoromethyl)-1,2,4-triazol-1-yl]phenyl}methyl)-1-[(2-isopropyl-3,4-dihydro-1H-isoquinolin-6-yl)methyl]-3-(methoxymethyl)pyrazole-4-carboxamide]	> 40 µM	> 40 µM	840 µg/mL (≈ 1360 µM)	< 0.01 µM
CCN1CCc2cc(Cn3cc(C(=O)NCc4c(-n5cnc(C(F)F)n5)ccc(OC)c4F)c(COC)n3)ccc2C1 [Example 50, N-({6-[3-(difluoromethyl)-1,2,4-triazol-1-yl]-2-fluoro-3-methoxyphenyl}methyl)-1-[(2-ethyl-3,4-dihydro-1H-isoquinolin-6-yl)methyl]-3-(methoxymethyl)pyrazole-4-carboxamide]	> 40 µM	> 40 µM	720 µg/mL (≈ 1230 µM)	< 0.01 µM
CCN1CCc2cc(Cn3cc(C(=O)NCc4c(-n5cnc(C(F)(F)F)n5)ccc(OC)c4F)c(COC)n3)ccc2C1 [Example 51, 1-[(2-ethyl-3,4-dihydro-1H-isoquinolin-6-yl)methyl]-N-({2-fluoro-3-methoxy-6-[3-(trifluoromethyl)-1,2,4-triazol-1-yl]phenyl}methyl)-3-(methoxymethyl)pyrazole-4-carboxamide]	> 40 µM	> 40 µM	770 µg/mL (≈ 1280 µM)	< 0.01 µM
COCc1nn(Cc2cnc3c(c2)CCN(C(C)C)C3)cc1C(=O)NCc1c(-n2cc(C)nn2)ccc(OC)c1F [Example 117, N-{[2-fluoro-3-methoxy-6-(4-methyl-1,2,3-triazol-1-yl)phenyl]methyl}-1-[(7-isopropyl-6,8-dihydro-5H-1,7-naphthyridin-3-yl)methyl]-3-(methoxymethyl)pyrazole-4-carboxamide]	> 40 µM	> 40 µM	900 µg/mL (≈ 1600 µM)	0.01 to 0.03 µM
COCc1nn(Cc2cc3c(cc2F)CCN(C)C3)cc1C(=O)NCc1c(-n2cc(C)nn2)ccc(OC)c1F [Example 118, 1-[(6-fluoro-2-methyl-3,4-dihydro-1H-isoquinolin-7-yl)methyl]-N-{[2-fluoro-3-methoxy-6-(4-methyl-1,2,3-triazol-1-yl)phenyl]methyl}-3-(methoxymethyl)pyrazole-4-carboxamide]	9.9 µM	> 40 µM	930 µg/mL (≈ 1690 µM)	< 0.01 µM
COCc1nn(Cc2ccc3c(c2)CCN(C(C)C)CC3)cc1C(=O)NCc1c(-n2cc(C)nn2)ccc(OC)c1F [Example 122, N-{[2-fluoro-3-methoxy-6-(4-methyl-1,2,3-triazol-1-yl)phenyl]methyl}-1-[(3-isopropyl-1,2,4,5-tetrahydro-3-benzazepin-7-yl)methyl]-3-(methoxymethyl)pyrazole-4-carboxamide]	> 40 µM	> 40 µM	730 µg/mL (≈ 1270 µM)	< 0.01 µM
